The test system of one data set is COLO 205. Kind of data set: Cytotoxicity against human COLO205 cells assessed as growth inhibition after 24 hrs by MTT assay. The following applies: COLO 205, 24 h. It is filed as functional, cell-based.
In the next data set the test system is A549. The experiment in a line: Cytotoxicity against human A549 cells assessed as growth inhibition after 24 hrs by MTT assay. The following applies: A549, 24 h. The data set is classed as functional, cell-based.
The next data set deals with THP-1. Kind of data set: Cytotoxicity against human THP1 cells assessed as effect on cell viability at 20 uM after 48 hrs by trypan blue exclusion assay. The data set is classed as cell-based. To be noted: thp-1, 48 h.
A short description of data set [1]: Antiinflammatory activity in human THP1 cells assessed as inhibition of PMA-induced IL-1beta secretion preincubated for 2 hrs followed by PMA challenge measured after 48 hrs by ELISA. The data set is classed as functional, cell-based. The following applies: THP-1.
The test system of another data set is MDA-MB-231. The experiment in a line: Cytotoxicity against human MDA-MB-231 cells assessed as growth inhibition after 24 hrs by MTT assay. The data set is classed as functional, cell-based. To be noted: MDA-MB-231, 24 h.
Data set [2] relates to PC-3. Kind of data set: Cytotoxicity against human PC3 cells assessed as growth inhibition after 24 hrs by MTT assay. To be noted: PC-3, 24 h. It is filed as functional, cell-based.
In data set [3] the test system is PC-3. The experiment in a line: Induction of apoptosis in human PC3 cells assessed as activation of caspase-3 using AFC conjugated Ac-DEVD as substrate measured per mg of protein at 10 uM after 24 hrs by fluorescence assay (reference value: 2115.3 +/- 83.2 FU/min). It is filed as functional.
For data set [4], the system named is PC-3. The experiment in a line: Induction of apoptosis in human PC3 cells assessed as activation of caspase-3 using AFC conjugated Ac-DEVD as substrate measured per mg of protein at 10 uM after 12 hrs by fluorescence assay (reference value: 1055.6 +/- 108.2 FU/min). It is filed as functional.
Data set [5] relates to PC-3. The experiment in a line: Induction of apoptosis in human PC3 cells assessed as activation of caspase-3 using AFC conjugated Ac-DEVD as substrate measured per mg of protein at 8 uM after 12 hrs by fluorescence assay (reference value: 1055.6 +/- 108.2 FU/min). It is filed as functional.
The subject of data set [6] is PC-3. The experiment in a line: Induction of apoptosis in human PC3 cells assessed as activation of caspase-3 using AFC conjugated Ac-DEVD as substrate measured per mg of protein at 10 uM after 48 hrs by fluorescence assay (reference value: 2642.4 +/- 37.5 FU/min). The data set is classed as functional.
Data set [7] deals with PC-3. The experiment in a line: Induction of apoptosis in human PC3 cells assessed as activation of caspase-3 using AFC conjugated Ac-DEVD as substrate measured per mg of protein at 10 uM after 36 hrs by fluorescence assay (reference value: 2192.3 +/- 115.9 FU/min). The data set is classed as functional.
Data set [8] relates to PC-3. The experiment in a line: Induction of apoptosis in human PC3 cells assessed as activation of caspase-3 using AFC conjugated Ac-DEVD as substrate measured per mg of protein at 8 uM after 24 hrs by fluorescence assay (reference value: 2115.3 +/- 83.2 FU/min). It is filed as functional.
For data set [9], the system named is PC-3. The experiment in a line: Induction of apoptosis in human PC3 cells assessed as activation of caspase-3 using AFC conjugated Ac-DEVD as substrate measured per mg of protein at 8 uM after 48 hrs by fluorescence assay (reference value: 2642.4 +/- 37.5 FU/min). The data set is classed as functional.
Data set [10] concerns PC-3. The experiment in a line: Induction of apoptosis in human PC3 cells assessed as activation of caspase-3 using AFC conjugated Ac-DEVD as substrate measured per mg of protein at 8 uM after 36 hrs by fluorescence assay (reference value: 2192.3 +/- 115.9 FU/min). The data set is classed as functional.

As for `[O-]/[N+](=C\c1cn(-c2ccccc2)nn1)c1ccccc1`, the IC50 in the data set on COLO 205 is > 100 µM; in the data set with A549, > 100 µM; in [1], 8.8 µM; in the data set on MDA-MB-231, > 100 µM; in the data set with PC-3 [2], > 100 µM. In the data set with THP-1, the Activity entry was “Non-toxic”.

For `[O-]/[N+](=C\c1cn(-c2ccc(F)cc2)nn1)c1ccccc1`, the IC50 was 10.2 µM with COLO 205; 12.5 µM in the data set on A549; > 20 µM in [1]; 9.8 µM in the data set with MDA-MB-231; 11.4 µM with PC-3 [2]. In the data set with THP-1, the Activity entry is listed as “Non-toxic”.

In the case of `[O-]/[N+](=C\c1cn(-c2ccc(Cl)cc2)nn1)c1ccccc1`, the IC50 in the data set on COLO 205 was 9.7 µM; with A549 it was 10.5 µM; in [1] it was > 20 µM; in the data set with MDA-MB-231, 8.9 µM; with PC-3 [2], 11.1 µM. Besides, in the data set on THP-1, the Activity result is listed as “Non-toxic”.

For the compound `CCCCCCCCCCn1cc(/C=[N+](\[O-])c2ccccc2)nn1`, the IC50 in the data set with COLO 205 was > 100 µM; in the data set on A549, > 100 µM; in data set [1] it was 9.9 µM; in the data set with MDA-MB-231, > 100 µM; in the data set on PC-3 [2], > 100 µM. Moreover, in the data set with THP-1, the Activity result is “Non-toxic”.

For the compound `[O-]/[N+](=C\c1cn(CCC(F)(F)C(F)(F)C(F)(F)C(F)(F)C(F)(F)C(F)(F)C(F)(F)C(F)(F)F)nn1)c1ccccc1`, the IC50 is > 100 µM with COLO 205, 86.8 µM in the data set with A549, 11.7 µM in data set [1] and > 100 µM with MDA-MB-231. Also, the Activity result in the data set on THP-1 is listed as “Non-toxic”.

For `[O-]/[N+](=C\c1cn(-c2ccccc2)nn1)Cc1ccccc1`, the IC50 in the data set with COLO 205 was > 100 µM; in the data set with A549, > 100 µM; in data set [1], 8 µM; in the data set on MDA-MB-231, > 100 µM. In addition, in the data set with THP-1, the Activity result is reported as “Non-toxic”.

As to `[O-]/[N+](=C\c1cn(-c2ccc(F)cc2)nn1)Cc1ccccc1`, the IC50 in the data set on COLO 205 was > 100 µM; with A549 it was > 100 µM; in data set [1], 9.7 µM; in the data set with MDA-MB-231, > 100 µM; with PC-3 [2] it was > 100 µM. The Activity entry in the data set on THP-1 is “Non-toxic”.

In the case of `COc1ccc(-n2cc(/C=[N+](\[O-])Cc3ccccc3)nn2)cc1`, the IC50 in the data set with COLO 205 is > 100 µM; with A549, > 100 µM; in [1], 17.3 µM; in the data set on MDA-MB-231 it was > 100 µM; in the data set with PC-3 [2], > 100 µM. Besides, in the data set with THP-1, the Activity entry is on record as “Non-toxic”.

As to `[O-]/[N+](=C\c1cn(-c2ccc(C(F)(F)F)cc2)nn1)Cc1ccccc1`, the IC50 in the data set with COLO 205 is > 100 µM; with A549, > 100 µM; in data set [1], 15.4 µM; in the data set on MDA-MB-231, > 100 µM; in the data set with PC-3 [2], > 100 µM. In the data set on THP-1, the Activity result is “Non-toxic”.

As to `CCCCCCCCn1cc(/C=[N+](\[O-])Cc2ccccc2)nn1`, the IC50 in the data set on COLO 205 is > 100 µM; in the data set with A549 it was > 100 µM; in data set [1], 13.1 µM; in the data set on MDA-MB-231 it was > 100 µM; in the data set with PC-3 [2], > 100 µM. In addition, the Activity result in the data set with THP-1 is given as “Non-toxic”.

As for `CCCCCCCCCCn1cc(/C=[N+](\[O-])Cc2ccccc2)nn1`, the IC50 in the data set with COLO 205 was > 100 µM; in the data set on A549, > 100 µM; in data set [1] it was 15.6 µM; in the data set with MDA-MB-231, > 100 µM; in the data set with PC-3 [2], > 100 µM. The Activity entry in the data set with THP-1 is on record as “Non-toxic”.

Turning to `[O-]/[N+](=C\c1cn(CCC(F)(F)C(F)(F)C(F)(F)C(F)(F)C(F)(F)C(F)(F)F)nn1)Cc1ccccc1`, the IC50 in the data set with COLO 205 was > 100 µM; in the data set with A549, > 100 µM; in data set [1], 12.1 µM; in the data set with MDA-MB-231, > 100 µM; in the data set with PC-3 [2], > 100 µM. In addition, in the data set with THP-1, the Activity entry is recorded as “Non-toxic”.

For `[O-]/[N+](=C\c1cn(CCC(F)(F)C(F)(F)C(F)(F)C(F)(F)C(F)(F)C(F)(F)C(F)(F)C(F)(F)F)nn1)Cc1ccccc1`, the Activity in the data set with PC-3 [3] is on record as 3802.2 FU/min; in the data set on PC-3 [4] it was 2541.4 FU/min; in the data set with PC-3 [5], 2473.2 FU/min; in the data set with PC-3 [6], 4700.5 FU/min; in the data set on THP-1, “Non-toxic”; in the data set on PC-3 [7] it was 4082.5 FU/min. Besides, the values for the Activity in the data set with PC-3 [8], in the data set with PC-3 [9] and in the data set on PC-3 [10] were 3148.5 FU/min, 4280.8 FU/min and 3396.8 FU/min, respectively. Further, the IC50 in the data set with COLO 205 is 9.4 µM; with A549, 8.8 µM; in data set [1] it was 17 µM; with MDA-MB-231, 8.4 µM; with PC-3 [2], 8.1 µM.

For the compound `CC(C)(C)/[N+]([O-])=C/c1cn(-c2ccccc2)nn1`, the IC50 in the data set on COLO 205 was 15.2 µM; with A549, 17.4 µM; in [1] it was > 20 µM; in the data set on MDA-MB-231, 14.8 µM; in the data set with PC-3 [2], 15.4 µM. The Activity entry in the data set with THP-1 is listed as “Non-toxic”.

`CC(C)(C)/[N+]([O-])=C/c1cn(-c2ccc(F)cc2)nn1`: the IC50 in the data set with COLO 205 came out at 58.9 µM; with A549, 87 µM; in data set [1], 14 µM; in the data set with MDA-MB-231 it was 66.4 µM; with PC-3 [2], 72.1 µM. For the same compound, the Activity entry in the data set on THP-1 is reported as “Non-toxic”.

As for `COc1ccc(-n2cc(/C=[N+](\[O-])C(C)(C)C)nn2)cc1`, the IC50 stood at 19.8 µM in the data set on COLO 205; 23.7 µM with A549; 13.5 µM in [1]; 23.1 µM with MDA-MB-231; 23.8 µM with PC-3 [2]. The Activity entry with THP-1 is on record as “Non-toxic”.

On to `CC(C)(C)/[N+]([O-])=C/c1cn(-c2ccc(C(F)(F)F)cc2)nn1`, for which the IC50 stood at 44.7 µM in the data set with COLO 205; 43.6 µM with A549; 14.4 µM in data set [1]; 48.2 µM in the data set with MDA-MB-231; 42 µM with PC-3 [2]. The Activity entry with THP-1 is recorded as “Non-toxic”.

Consider `CCCCCCCCn1cc(/C=[N+](\[O-])C(C)(C)C)nn1`, for which the IC50 with COLO 205 was 30.8 µM; in the data set with A549, 31.3 µM; in data set [1] it was 7.9 µM; in the data set with MDA-MB-231, 29.7 µM; with PC-3 [2], 24.6 µM. Further, the Activity entry in the data set on THP-1 is listed as “Non-toxic”.

For the compound `CCCCCCCCCCn1cc(/C=[N+](\[O-])C(C)(C)C)nn1`, the IC50 in the data set on COLO 205 stood at 22.1 µM; in the data set on A549, 24.8 µM; in [1], 20 µM; in the data set on MDA-MB-231, 20.8 µM; in the data set on PC-3 [2], 19.8 µM. Also, the Activity result in the data set with THP-1 is “Non-toxic”.

Consider `CC(C)(C)/[N+]([O-])=C/c1cn(CCC(F)(F)C(F)(F)C(F)(F)C(F)(F)C(F)(F)C(F)(F)F)nn1`, for which the IC50 in the data set with COLO 205 turned out to be 9.5 µM; in the data set on A549, 11.5 µM; in data set [1] it was 8.1 µM; in the data set with MDA-MB-231, 9.8 µM; in the data set on PC-3 [2] it was 11.2 µM. For the same compound, the Activity result in the data set with THP-1 is listed as “Non-toxic”.

For `CC(C)(C)/[N+]([O-])=C/c1cn(CCC(F)(F)C(F)(F)C(F)(F)C(F)(F)C(F)(F)C(F)(F)C(F)(F)C(F)(F)F)nn1`, the IC50 was found to be 28.8 µM in the data set on COLO 205; 30.5 µM in the data set with A549; 15 µM in [1]; 29.7 µM in the data set with MDA-MB-231; 25.7 µM in the data set on PC-3 [2]. In the data set on THP-1, the Activity result is “Non-toxic”.

Turning to `CN1C(C(=O)Nc2ccccn2)=C(O)c2ccccc2S1(=O)=O` [PIROXICAM], in [1], the IC50 amounted to 18 µM.

The values are drawn from ChEMBL document CHEMBL3259601, “Synthesis of novel 1,2,3-triazole substituted-N-alkyl/aryl nitrone derivatives, their anti-inflammatory and anticancer activity” (Eur J Med Chem, 2014).
